The values that follow come from US12655116B2, “Substituted isophthalic acid diamides” (Bayer Aktiengesellschaft, priority 2020, dated 2026).

The subject of test [1] is ABUTH. The test is described as follows: Pre-emergence herbicidal action against ABUTH. Particulars: for Pre-emergence action against ABUTH (herbicidal activity in percent): dosage 20 g/ha, scored visually after 3 weeks vs untreated controls, 100% = plants have died, 0% = like control plants. Format: in vivo, Abutilon theophrasti. In a few lines: (§1)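 Pre-emergence soil-surface spray of formulated compound (WP or EC; 600 to 800 l/ha; 0.2% wetting agent) over seeds sown in sandy loam. After 3 weeks under greenhouse conditions, damage is estimated visually in percent against untreated plants.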

The test system of test [2] is PHBPU. Description: Post-emergence herbicidal action against PHBPU. Particulars: dosage 20 g/ha. It counts as in vivo, Pharbitis purpurea. An outline of the steps: (§2)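 Greenhouse plants in sandy loam were sprayed at the one-leaf stage, 2 to 3 weeks after sowing, with WP or EC formulations as aqueous suspension or emulsion (600 to 800 l/ha water, 0.2% wetting agent). Visual damage was scored about 3 weeks later versus untreated controls, 0% = like control, 100% = dead.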

Test [3] concerns VIOTR. The test is described as follows: Pre-emergence herbicidal action against VIOTR. Format: in vivo, Viola tricolor. An outline of the steps:
as §1

Test [4] concerns AMARE. The test is described as follows: Post-emergence herbicidal action against AMARE. It counts as in vivo, Amaranthus retroflexus. The note with it: 20 g/ha, visual assessment about 3 weeks after treatment, 100% = plants have died, 0% = like control plants. An outline of the steps:
as §2

For test [5], the system named is VERPE. The test is described as follows: Post-emergence herbicidal action against VERPE. It counts as in vivo, Veronica persica. The note with it: 20 g/ha. As to the method:
Seeds of monocotyledonous and dicotyledonous weed and crop plants are laid out in sandy loam soil in wood-fiber pots, covered with soil and cultivated in a greenhouse under good growth conditions. 2 to 3 weeks after sowing, the test plants are treated at the one-leaf stage. The compounds of the invention, formulated in the form of wettable powders (WP) or as emulsion concentrates (EC), are then sprayed onto the green parts of the plants in the form of an aqueous suspension or emulsion at a water application rate equivalent to 600 to 800 l/ha, with addition of 0.2% wetting agent. After the test plants have been left to stand in the greenhouse under optimal growth conditions for about 3 weeks, the action of the preparations is assessed visually in comparison to untreated controls (herbicidal action in percent (%): 100% activity=the plants have died, 0% activity=like control plants). […] The tables below illustrate, in an illustrative manner, the post-emergence herbicidal action of the compounds of the invention, the herbicidal activity being stated in percent.

Test [6] concerns VERPE. The test is described as follows: Pre-emergence herbicidal action against VERPE. It counts as in vivo, Veronica persica. In a few lines:
as §1

Test [7] relates to ALOMY. Description: Post-emergence herbicidal action against ALOMY. Particulars: dosage 20 g/ha, visual assessment about 3 weeks after treatment vs untreated controls. Format: in vivo, Alopecurus myosuroides. In a few lines:
as §2

Test [8] has as its system MATIN. The test is described as follows: Pre-emergence herbicidal action against MATIN. It counts as in vivo, Matricaria inodora. An outline of the steps:
as §1

The test system of test [9] is ALOMY. Description: Pre-emergence herbicidal action against ALOMY. It counts as in vivo, Alopecurus myosuroides. Particulars: 80 g/ha, pre-emergence, scored visually after 3 weeks vs untreated controls (100% = plants have died, 0% = like control plants). An outline of the steps:
as §1

Test [10] deals with VIOTR. Description: Post-emergence herbicidal action against VIOTR. It counts as in vivo, Viola tricolor. An outline of the steps: as §2
Test [11] has as its system AMARE. Description: Pre-emergence herbicidal action against AMARE. Format: in vivo, Amaranthus retroflexus. An outline of the steps: as §1
Test [12] concerns ABUTH. Description: Post-emergence herbicidal action against ABUTH. Format: in vivo, Abutilon theophrasti. The note with it: visual assessment about 3 weeks after treatment vs untreated controls. An outline of the steps:
as §2

The subject of test [13] is AVEFA. Description: Pre-emergence herbicidal action against AVEFA. Particulars: 80 g/ha, pre-emergence. It counts as in vivo, Avena fatua. In a few lines:
as §1

Test [14] relates to ECHCG. The test is described as follows: Pre-emergence herbicidal action against ECHCG. It counts as in vivo, Echinochloa crus-galli. Particulars: 80 g/ha. In a few lines:
as §1

Test [15] relates to ECHCG. The test is described as follows: Post-emergence herbicidal action against ECHCG. Format: in vivo, Echinochloa crus-galli. In a few lines: as §2
The mark [16] stands for this setting: 80 g/ha, scored visually after 3 weeks vs untreated controls (100% = plants have died, 0% = like control plants).
The mark [17] stands for this setting: 20 g/ha, scored visually after 3 weeks vs untreated controls, 100% = plants have died, 0% = like control plants.

Consider `COc1ccc(C(=O)Nc2nnnn2C)c(Cl)c1C(=O)NC1CC1` [Example 1-356], for which the pest or weed control at 80 g/ha in test [1] (Abutilon theophrasti, 504 h, 80 g/ha, scored visually after 3 weeks vs untreated controls (100% = plants have died, 0% = like control plants)) is 100%; in test [3] (Viola tricolor, 504 h, dosage 80 g/ha), 100%; in test [6] (Veronica persica, 504 h, dosage 80 g/ha), 100%; in test [8] (Tripleurospermum inodorum, 504 h, dosage 80 g/ha) it was 100%; in test [9] (Alopecurus myosuroides, 504 h), 100%; in [11] (Amaranthus retroflexus, 504 h, 80 g/ha, scored visually after 3 weeks vs untreated controls, 100% = plants have died, 0% = like control plants), 100%. Moreover, the pest or weed control at 20 g/ha in test [2] (Ipomoea purpurea, 504 h) is 80%; in [4] (Amaranthus retroflexus, 504 h), 100%; in [5] (Veronica persica, 504 h), 90%; in test [6] (Veronica persica, 504 h, dosage 20 g/ha) it was 100%; in test [7] (Alopecurus myosuroides, 504 h) it was 80%; in test [10] (Viola tricolor, 504 h, 20 g/ha) it was 90%. Also, the pest or weed control at 20 g/ha in test [11] (Amaranthus retroflexus, 504 h, 20 g/ha, scored visually after 3 weeks vs untreated controls, 100% = plants have died, 0% = like control plants) was determined as 100%; in [12] (Abutilon theophrasti, 504 h, dosage 20 g/ha), 100%.
In the case of `CCn1nnnc1NC(=O)c1ccc(Br)c(C(=O)NCCOC)c1Cl` [Example 2-186], the “Pre-emergence action against ABUTH (herbicidal activity)” value in [1] (setting [16]) was 100%. Also, the “Pre-emergence action against ABUTH (herbicidal activity in percent)” value in test [1] is reported as 100%. The “Pre-emergence action against AVEFA in %” value in [13] came to 80%. Further, the “Pre-emergence action against ECHCG in %” value in [14] is 100%. In [3] (dosage 80 g/ha), the “Pre-emergence action against VIOTR in %” value is reported as 90%. In test [4], the “Post-emergence action at 20 g/ha against AMARE in %” value was determined as 100%. For the same molecule, the “Post-emergence action against VERPE in %” value in test [5] is 80%. Further, the “Pre-emergence action against VERPE in %” value in test [6] (dosage 80 g/ha) was found to be 90%. Moreover, the “Post-emergence action against ALOMY in %” value in test [7] worked out at 80%. Moreover, the “Pre-emergence action against MATIN in %” value amounted to 80% in test [8] (dosage 20 g/ha) and 100% in test [8] (dosage 80 g/ha). Besides, in test [9], the “Pre-emergence action against ALOMY (herbicidal activity)” value worked out at 100%. Moreover, in test [10] (20 g/ha), the “Post-emergence action against VIOTR in %” value is given as 80%. Besides, the “Pre-emergence action against AMARE in %” value in test [11] (setting [17]) and in [11] (setting [16]) was 100% in each case. The “Post-emergence action against ABUTH in %” value is listed as 80% in test [12] (dosage 5 g/ha) and 90% in test [12] (dosage 20 g/ha).
Take `CCn1nnnc1NC(=O)c1ccc(C(F)F)c(C(=O)NCCOC)c1C` [Example 2-346]: the “Pre-emergence action against ABUTH (herbicidal activity)” value in test [1] (setting [16]) was found to be 90%. Further, the “Pre-emergence action against ABUTH (herbicidal activity in percent)” value in [1] was found to be 80%. Further, in test [13], the “Pre-emergence action against AVEFA in %” value turned out to be 80%. In addition, the “Pre-emergence action against ECHCG in %” value in [14] is listed as 90%. Moreover, in [2], the “Post-emergence action against PHBPU in %” value amounted to 80%. Further, the “Pre-emergence action against VIOTR in %” value in test [3] (dosage 20 g/ha) and in test [3] (dosage 80 g/ha) was 80% in each case. In addition, in [4], the “Post-emergence action at 20 g/ha against AMARE in %” value was 100%. Further, the “Post-emergence action against VERPE in %” value in [5] is recorded as 80%. In addition, in test [6] (dosage 80 g/ha), the “Pre-emergence action against VERPE in %” value is 80%. In addition, the “Post-emergence action against ALOMY in %” value in test [7] turned out to be 80%. For the same molecule, the “Pre-emergence action against MATIN in %” value in test [8] (dosage 20 g/ha) and in test [8] (dosage 80 g/ha) was 90% each time. The “Pre-emergence action against ALOMY (herbicidal activity)” value in test [9] was 80%. In addition, the “Post-emergence action against VIOTR in %” value was 80% in [10] (5 g/ha) and 100% in test [10] (20 g/ha). Further, the “Pre-emergence action against AMARE in %” value in test [11] (setting [17]) and in [11] (setting [16]) was 100% each time. Moreover, the “Post-emergence action against ECHCG in %” value in test [15] (dosage 5 g/ha) turned out to be 80%; in test [15] (dosage 20 g/ha) it was 90%. Further, the “Post-emergence action against ABUTH in %” value in test [12] (dosage 5 g/ha) and in test [12] (dosage 20 g/ha) was 90% each time.
